Results published in patent US9266895B2, “Substituted pyrazolo[3,4-d]pyrimidines as kinase inhibitors” (PRINCIPIA BIOPHARMA INC., priority 2012, dated 2016).

Biological target: BTK (Homo sapiens (Human), UniProt Q06187)
Assay: Reversibility of binding (compound in solution by HPLC-MS/MS before and after target perturbation)
Experimental: The following approach was developed to differentiate compounds that form irreversible covalent bond with their targets, such as non-cyano containing acrylamide compounds, from compound that form reversible covalent bond i.e., compounds and/or pharmaceutically acceptable salts of the present disclosure. […] The reactions were then treated with perturbations including both denaturation with 5 M guanidine hydrochloride and digestion with trypsin, disrupting proper folding of the target. […] The concentration of compound in solution was assessed both preceding and following perturbation using high performance liquid chromatography (HPLC) coupled to tandem mass spectrometry.

BTK, sequence (Q06187 whole entry): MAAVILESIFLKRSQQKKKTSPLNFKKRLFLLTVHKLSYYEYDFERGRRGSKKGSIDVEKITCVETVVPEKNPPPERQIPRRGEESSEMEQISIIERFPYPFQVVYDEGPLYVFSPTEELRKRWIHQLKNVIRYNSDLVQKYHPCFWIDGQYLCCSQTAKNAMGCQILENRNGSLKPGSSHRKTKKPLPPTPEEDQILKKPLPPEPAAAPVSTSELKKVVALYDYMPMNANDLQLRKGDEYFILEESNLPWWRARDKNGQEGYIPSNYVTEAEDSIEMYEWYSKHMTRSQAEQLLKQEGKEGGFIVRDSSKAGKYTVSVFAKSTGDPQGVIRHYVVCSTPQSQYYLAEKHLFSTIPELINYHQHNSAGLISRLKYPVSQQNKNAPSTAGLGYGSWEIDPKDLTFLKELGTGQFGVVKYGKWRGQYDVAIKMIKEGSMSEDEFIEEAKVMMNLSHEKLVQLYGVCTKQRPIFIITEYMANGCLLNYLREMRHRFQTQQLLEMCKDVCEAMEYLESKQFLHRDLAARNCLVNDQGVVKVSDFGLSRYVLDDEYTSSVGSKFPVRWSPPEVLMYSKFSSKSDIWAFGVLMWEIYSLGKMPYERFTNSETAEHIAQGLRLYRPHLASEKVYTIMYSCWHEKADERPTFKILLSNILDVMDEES

Structure (SMILES): CN(C1COC1)C(C)(C)C=C(C#N)C(=O)N1CCC[C@H]1Cn1nc(-c2ccc(Oc3ccccc3)cc2F)c2c(N)ncnc21 [Example 10, 2-[(2S)-2-[[4-amino-3-(2-fluoro-4-phenoxy-phenyl)pyrazolo[3,4-d]pyrimidin-1-yl]methyl]pyrrolidine-1-carbonyl]-4-methyl-4-[methyl(oxetan-3-yl)amino]pent-2-enenitrile]
- Compound in solution in the denatured or digested state? (after 5 M guanidine hydrochloride denaturation or trypsin digestion): yes
- Compound in solution in the native state? (target in excess, native state): no
